Assay results taken from patent EP0537947A1, “Naphthoquinone derivatives for the treatment of parasitic infections” (THE WELLCOME FOUNDATION LIMITED, priority 1991, dated 1993).
Structures can show the parent of a compound that is named as a salt. Where two headings read alike, the source gives them in different places.

Legend:
Plasmodium yoelii = experiment: In vivo activity against Plasmodium yoelii in mice (modified 4-day suppressive test)
Procedure: Compounds A and B were administered orally and intravenously, and compound (I) was administered orally only, in the manner described below.
The test method is a modified version of the 4-day suppressive test. The YM strain of P.yoelii was maintained in mice by twice weekly passage. Infected blood was collected and diluted with normal saline to give an inoculum of 3x10⁶ parasitized enythrocytes/ml. On the morning of Day 1 the test animals (male CD-1 mice weighing 18-20g) were infected intravenously via the tail vein with 0.1ml of inoculum/mouse.
Test compounds A, B and (I) were formulated by ball milling in 0.25% celacol with stainless steel balls. The total requirement was formulated at the beginning of a test and thereafter stored at 4°C.
Each test compound was administered orally (p.o.) to four or more usually five groups of mice, each group receiving a different dose level (dilution). A further group of mice was administered celacol only, as a control (ie. a total of 30 mice are used to obtain each ED₅₀). The mice were dosed orally in the late afternoon of Day 1 and in the early morning and late afternoon of days 2, 3 and 4, giving a total of seven doses in four days or 24 hours post-infection i.e. on day 2 when given as a single dose.
I.v. formulations of test Compounds A and B were prepared by dissolving the compound in water immediately before use, and administered via the tail vein as a single dose 24 hours post-infection, i.e. on day 2.
On the morning of day 5 smears of tail blood were prepared from each mouse and the parasitaemia counted. Data were analysed to yield ED₅₀ values by the best fit to a sigmoidal dose response curve.

Solubility in water = assay type: physicochemical; details: statement in words
[1] = Plasmodium yoelii, po, dosing schedule 1 x p.o. (single dose 24 hours post-infection), YM strain of P.yoelii, male CD-1 mice, parasitaemia on day 5, read-out: ED50

O=C1C(O)=C([C@H]2CC[C@H](c3ccc(Cl)cc3)CC2)C(=O)c2ccccc21 [Compound (I), 2-[trans-4-(4-Chlorophenyl)cyclohexyl]-3-hydroxy-1,4-naphthoquinone, reference compound] showed an ED50 (Plasmodium yoelii; [1]) of 0.09 mg/kg and an ED50 (Plasmodium yoelii; Plasmodium yoelii, po, dosing schedule 7 x p.o. (seven doses in four days), YM strain of P.yoelii, male CD-1 mice, parasitaemia on day 5, read-out: ED50) of 0.03 mg/kg.
In the case of O=C1C(OP(=O)(O)O)=C([C@H]2CC[C@H](c3ccc(Cl)cc3)CC2)C(=O)c2ccccc21 [Compound (B), 3-[trans--4-(4-Chlorophenyl)cyclohexyl]-1,4-dioxo-2-naphthylphosphate N-methylglucosamine salt], the solubility in water (Solubility in water) is reported as “readily soluble in cold water”, the ED50 (Plasmodium yoelii; Plasmodium yoelii, iv, 1 x i.v., calculated in terms of the amount of compound (I) administered, read-out: Weight adjusted ED50) is reported as 0.12 mg/kg and the ED50 (Plasmodium yoelii; Plasmodium yoelii, iv, dosing schedule 1 x i.v. (single dose 24 hours post-infection, dissolved in water), YM strain of P.yoelii, male CD-1 mice, parasitaemia on day 5, read-out: ED50) is reported as 0.27 mg/kg. It also gave an ED50 (Plasmodium yoelii; Plasmodium yoelii, po, 1 x p.o., calculated in terms of the amount of compound (I) administered, read-out: Weight adjusted ED50) of 0.1 mg/kg and an ED50 (Plasmodium yoelii; [1]) of 0.23 mg/kg.
With “3-[trans-4-(4-Chlorophenyl)cyclohexyl]-1,4-dioxo-2-naphthylphosphate bis diethanolamine salt [Compound (A)]” the “Weight adjusted ED50” value (Plasmodium yoelii; 7 x p.o., calculated in terms of the amount of compound (I) administered) was 0.056 mg/kg and the ED50 (Plasmodium yoelii; dosing schedule 7 x p.o. (seven doses in four days), YM strain of P.yoelii, male CD-1 mice, parasitaemia on day 5) was 0.1 mg/kg.
